The record followed here is ChEMBL document CHEMBL3632493, “Design, synthesis and anticancer mechanistic studies of linked azoles” (Medchemcomm, 2015).

Each structure is given as a SMILES string. The source made the active and inactive calls. No cut-off for these calls is given here.

The inhibition is the drop in the measured response relative to a control, in per cent. For orientation: IC50 means the concentration needed to halve the response being measured.

The subject of assay [1] is HCT-116. As to the kind of experiment: Anticancer activity against human HCT116 cells assessed as growth inhibition at 50 uM by CCK-8 assay. The format is functional. Background: Tetrazolium dyes change colour on reduction, which living cells bring about.
Assay [2] has as its system HCT-116. The assay is described as follows: Anticancer activity against human HCT116 cells assessed as growth inhibition by CCK-8 assay. Format: functional, cell-based.
Assay [3] deals with HCT-116. As to the kind of experiment: Induction of apoptosis in human HCT116 cells at 30 uM after 30 hrs by annexin-V/7-AAD staining based flow cytometry. The format is functional. Background: Flow cytometry measures light scatter and fluorescence of single cells or particles in a stream.
Assay [4] concerns HCT-116. As to the kind of experiment: Induction of DNA damage in human HCT116 cells at G0/G1 phase at 30 uM after 24 hrs by gamma-H2AX-staining based-flow cytometry. The format is functional, cell-based.
The subject of assay [5] is HCT-116. The assay is described as follows: Induction of DNA damage in human HCT116 cells at G0/G1 phase at 100 nM after 24 hrs by gamma-H2AX-staining based-flow cytometry. The format is functional, cell-based.
For assay [6], the system named is HCT-116. The assay is described as follows: Decrease in mitotic index in human HCT116 cells at 100 nM after 20 and 24 hrs by flow cytometry. Format: functional, cell-based.
The test system of assay [7] is HCT-116. The assay is described as follows: Induction of DNA damage in human HCT116 cells at G0/G1 phase at 20 nM after 24 hrs by gamma-H2AX-staining based-flow cytometry. The format is functional, cell-based.
Assay [8] has as its system HCT-116. The assay is described as follows: Increase in mitotic index in human HCT116 cells at 20 nM after 20 and 24 hrs by flow cytometry. Format: functional, cell-based.
Assay [9] deals with HCT-116. As to the kind of experiment: Cell cycle arrest in human HCT116 cells assessed as increase in number of cells at G2/M phase at 20 and 30 uM after 20 hrs by propidium-iodide staining based flow cytometry. The format is functional.
Assay [10] deals with HCT-116. As to the kind of experiment: Cell cycle arrest in human HCT116 cells assessed as decrease in number of cells at G0/G1 phase at 20 and 30 uM after 20 hrs by propidium-iodide staining based flow cytometry. The format is functional.
For assay [11], the system named is HCT-116. The assay is described as follows: Cell cycle arrest in human HCT116 cells assessed as decrease in number of cells at S phase at 20 and 30 uM after 20 hrs by propidium-iodide staining based flow cytometry. Format: functional.
In assay [12] the test system is HCT-116. The assay is described as follows: Induction of DNA damage in human HCT116 cells at G0/G1 phase at 20 and 30 uM after 24 hrs by gamma-H2AX-staining based-flow cytometry. Format: functional, cell-based.
For assay [13], the system named is HCT-116. The assay is described as follows: Decrease in mitotic index in human HCT116 cells at 30 and 50 uM by flow cytometry. The settings on record: TDE = time-dependent effect. Format: functional, cell-based.
Assay [14] has as its system HCT-116. The assay is described as follows: Decrease in mitotic index in human HCT116 cells after 20 and 24 hrs by flow cytometry. The format is functional, cell-based.

As for `CCOC(=O)c1csc(-c2csc(-c3csc([C@H](C)NC(=O)OC(C)(C)C)n3)n2)n1`, in assay [1], the inhibition result is “Active”.

With `C[C@@H](NC(=O)OC(C)(C)C)c1nc(-c2nc(-c3nc(C(N)=O)cs3)cs2)cs1`, in assay [1], the inhibition at 50 µM amounted to 70%. For the same compound, the concentration for half-maximal inhibition (IC50) in assay [2] is 22.4 µM. In [3], this compound registered an Activity of 30%. Moreover, in assay [4], the outcome was Active.

On to `COc1cccc2c1C(=O)c1c(O)c3c(c(O)c1C2=O)C[C@@](O)(C(=O)CO)C[C@@H]3O[C@H]1C[C@H](N)[C@H](O)[C@H](C)O1`, for which the result in [5] was Active. Also, the inhibition result in assay [6] is “Active”.

As to `CCOC(=O)c1csc(-c2csc(-c3csc([C@@H](C)NC(=O)OC(C)(C)C)n3)n2)n1`, the inhibition entry in assay [1] is “Active”.

In the case of `C[C@H](NC(=O)OC(C)(C)C)c1nc(-c2nc(-c3nc(C(N)=S)cs3)cs2)cs1`, in assay [1], the inhibition at 50 µM was 70%. For the same compound, the IC50 in assay [2] is 38.1 µM.

`CC(=O)O[C@H]1C(=O)[C@@]2(C)[C@H]([C@H](OC(=O)c3ccccc3)[C@]3(O)C[C@H](OC(=O)[C@H](O)[C@@H](NC(=O)c4ccccc4)c4ccccc4)C(C)=C1C3(C)C)[C@]1(OC(C)=O)CO[C@@H]1C[C@@H]2O`: the outcome in assay [7] and in [8] was Active.

As to `C[C@H](NC(=O)OC(C)(C)C)c1nc(-c2nc(-c3nc(C(N)=O)cs3)cs2)cs1`, in assay [1], the inhibition at 50 µM amounted to 70%. Also, in [2], the 50% inhibitory concentration (IC50) came out at 7.6 µM. The Activity in assay [3] was 60%. Also, the result in [9], in assay [10], in assay [11] and in assay [12] was Active. For the same compound, the inhibition entry is “tde” in assay [13] and “Dose-dependent effect” in [14].

As for `C[C@@H](NC(=O)OC(C)(C)C)c1nc(-c2nc(-c3nc(C(N)=S)cs3)cs2)cs1`, the inhibition at 50 µM in assay [1] turned out to be 70%. Moreover, the half-maximal inhibitory concentration (IC50) in assay [2] was 45.2 µM.
